Here are results for 21 molecules from patent US20220283500A1, “CHEMICALLY AMPLIFIED POSITIVE-TYPE PHOTOSENSITIVE RESIN COMPOSITION, PHOTOSENSITIVE DRY FILM, PRODUCTION METHOD FOR PHOTOSENSITIVE DRY FILM, PRODUCTION METHOD FOR PATTERNED RESIST FILM, COMPOUND, PHOTO-ACID GENERATOR, AND PRODUCTION METHOD FOR N-ORGANOSULFONYLOXY COMPOUND” (TOKYO OHKA KOGYO CO., LTD., priority 2019, published 2022).

SMILES strings stand for the structures.

The nature of this series: Evaluation of solubility of acid generator in PGMEA. The following applies: maximal concentration dissolved in propylene glycol monomethyl ether acetate (PGMEA).
Turning to `COC(=O)C(F)(F)S(=O)(=O)ON1C(=O)c2cc(C(C)C)cc3ccc(C(C)C)c(c23)C1=O` [PAG-29], the “Solvent solubility of acid generator” value is on record as 10% by mass.
Regarding `CCCCC(Oc1cc2c3c(cccc3c1)C(=O)N(OS(=O)(=O)C(F)(F)C(=O)OC)C2=O)C(=O)O` (stereo not drawn) [PAG-13], the “Solvent solubility of acid generator” value was found to be 10% by mass.
The result for `O=C1c2cccc3cccc(c23)C(=O)N1OS(=O)(=O)C(F)(F)F` [PAG-5, reference compound] reads less than 1% by mass; that for `CCCCc1ccc2c3c(cccc13)C(=O)N(OS(=O)(=O)C(F)(F)C(=O)OCCC1CCCCC1)C2=O` [PAG-2], greater than 20% by mass.
With `CCCCC(Oc1cc2c3c(cccc3c1)C(=O)N(OS(=O)(=O)C(F)(F)C(=O)OC)C2=O)C(=O)OC(C)(C)C` (stereo not drawn) [PAG-17], the “Solvent solubility of acid generator” value was determined as 15% by mass.
Turning to `CCCCC(Oc1cc2c3c(cccc3c1)C(=O)N(OS(=O)(=O)C(F)(F)C(=O)OCCC13CC4CC(CC(C4)C1)C3)C2=O)C(=O)O` (stereo not drawn) [PAG-15], the “Solvent solubility of acid generator” value was 10% by mass.
As to `CCCCC(CC)COC(=O)CSc1ccc2c3c(cccc13)C(=O)N(OS(=O)(=O)C(F)(F)C(=O)OCCC13CC4CC(CC(C4)C1)C3)C2=O` (stereo not drawn) [PAG-11], the “Solvent solubility of acid generator” value is recorded as greater than 20% by mass.
Consider `CCCCC(Oc1cc2c3c(cccc3c1)C(=O)N(OS(=O)(=O)C(F)(F)C(=O)OCCC1CCCCC1)C2=O)C(=O)O` (stereo not drawn) [PAG-14], for which the “Solvent solubility of acid generator” value is reported as 10% by mass.
The result for `CCCCC(CC)COC(=O)CSc1ccc2c3c(cccc13)C(=O)N(OS(=O)(=O)C(F)(F)C(=O)OC)C2=O` (stereo not drawn) [PAG-9] reads greater than 20% by mass; that for `CCCCC(CC)COC(=O)CSc1ccc2c3c(cccc13)C(=O)N(OS(=O)(=O)C(F)(F)C(=O)OCCC1CCCCC1)C2=O` (stereo not drawn) [PAG-10], greater than 20% by mass.
Take `CCCCc1ccc2c3c(cccc13)C(=O)N(OS(=O)(=O)C(F)(F)F)C2=O` [PAG-6, reference compound]: the “Solvent solubility of acid generator” value was greater than 20% by mass.
For `COC(=O)C(F)(F)S(=O)(=O)ON1C(=O)c2cccc3cccc(c23)C1=O` [PAG-7], the “Solvent solubility of acid generator” value was 5% by mass.
For `CC(C)c1cc2c3c(c(C(C)C)ccc3c1)C(=O)N(OS(=O)(=O)C(F)(F)C(=O)OCCC1CCCCC1)C2=O` [PAG-30], the “Solvent solubility of acid generator” value was greater than 20% by mass.
On to `CCCCC(Oc1cc2c3c(cccc3c1)C(=O)N(OS(=O)(=O)C(F)(F)C(=O)OC1C3CC4OS(=O)(=O)C1C4C3)C2=O)C(=O)O` (stereo not drawn) [PAG-16], for which the “Solvent solubility of acid generator” value is 10% by mass.
As for `CCCCc1ccc2c3c(cccc13)C(=O)N(OS(=O)(=O)C(F)(F)C(=O)OC)C2=O` [PAG-1], the “Solvent solubility of acid generator” value is greater than 20% by mass.
As for `CC(C)c1cc2c3c(c(C(C)C)ccc3c1)C(=O)N(OS(=O)(=O)C(F)(F)C(=O)OCCC13CC4CC(CC(C4)C1)C3)C2=O` [PAG-31], the “Solvent solubility of acid generator” value is given as greater than 20% by mass.
In the case of `CC(C)c1cc2c3c(c(C(C)C)ccc3c1)C(=O)N(OS(=O)(=O)C(F)(F)C(=O)OC1C3CC4OS(=O)(=O)C1C4C3)C2=O` (stereo not drawn) [PAG-32], the “Solvent solubility of acid generator” value was 10% by mass.
As for `CCCCC(Oc1cc2c3c(cccc3c1)C(=O)N(OS(=O)(=O)C(F)(F)C(=O)OCCC13CC4CC(CC(C4)C1)C3)C2=O)C(=O)OC(C)(C)C` (stereo not drawn) [PAG-19], the “Solvent solubility of acid generator” value is reported as 15% by mass.
The result for `O=C1c2cccc3cccc(c23)C(=O)N1OS(=O)(=O)C(F)(F)C(=O)OC1C2CC3OS(=O)(=O)C1C3C2` (stereo not drawn) [PAG-8] reads less than 1% by mass; that for `CCCCC(Oc1cc2c3c(cccc3c1)C(=O)N(OS(=O)(=O)C(F)(F)C(=O)OCCC1CCCCC1)C2=O)C(=O)OC(C)(C)C` (stereo not drawn) [PAG-18], 15% by mass.
Turning to `CCCCC(CC)COC(=O)CSc1ccc2c3c(cccc13)C(=O)N(OS(=O)(=O)C(F)(F)C(=O)OC1C3CC4OS(=O)(=O)C1C4C3)C2=O` (stereo not drawn) [PAG-12], the “Solvent solubility of acid generator” value is greater than 20% by mass.
